target: T1, human estrogen receptor (Homo sapiens, UniProt P03372, G400V); settings: not given
T1 sequence (P03372 1-595 G400V): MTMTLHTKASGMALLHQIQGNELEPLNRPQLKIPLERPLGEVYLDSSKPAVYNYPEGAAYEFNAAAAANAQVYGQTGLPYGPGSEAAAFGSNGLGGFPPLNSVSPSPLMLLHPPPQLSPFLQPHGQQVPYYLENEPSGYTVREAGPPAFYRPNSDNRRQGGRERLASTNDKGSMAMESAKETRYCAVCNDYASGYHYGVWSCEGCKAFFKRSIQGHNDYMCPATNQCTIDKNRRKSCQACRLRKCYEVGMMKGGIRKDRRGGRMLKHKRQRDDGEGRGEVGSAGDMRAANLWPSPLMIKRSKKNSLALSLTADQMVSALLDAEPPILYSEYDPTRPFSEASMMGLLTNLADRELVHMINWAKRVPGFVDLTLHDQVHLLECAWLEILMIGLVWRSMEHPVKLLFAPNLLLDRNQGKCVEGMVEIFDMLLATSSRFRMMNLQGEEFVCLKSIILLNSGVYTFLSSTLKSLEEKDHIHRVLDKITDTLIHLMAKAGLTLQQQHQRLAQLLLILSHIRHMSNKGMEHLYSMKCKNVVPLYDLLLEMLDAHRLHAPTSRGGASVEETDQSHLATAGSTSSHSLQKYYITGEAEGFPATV

**Q.** With 4-Hydroxytamoxifen as the compound, how does the “Percent Cross Reactivity” value read?
**A.** Its value is <0.25%.

same assay, conditions: cross-activity determined at concentration of 50% maximum potency; 17-β Estradiol = 100

**Q.** For `COc1cc2c(cc1O)CC[C@@H]1[C@@H]2CC[C@]2(C)C(=O)CC[C@@H]12` [2-Methoxyestrone], which “Percent Cross Reactivity” value is on record?
**A.** The value was <0.25%.

**Q.** How did the “Percent Cross Reactivity” value turn out when `C[C@]12CC[C@@H]3c4ccc(O)cc4CC[C@H]3[C@@H]1C[C@@H](O)C2=O` [16-Hydroxyestrone] was run?
**A.** The value was 4.0%.

**Q.** For `C[C@]12CCC(=O)C=C1CC[C@@H]1[C@@H]2CC[C@]2(C)C(=O)CC[C@@H]12` [Androstenedione], which “Percent Cross Reactivity” value is on record?
**A.** The value was <0.05%.

**Q.** How did the “Percent Cross Reactivity” value turn out when `C[C@]12C[C@H](O)[C@H]3[C@@H](CCC4=CC(=O)CC[C@@]43C)[C@@H]1CC[C@@H]2C(=O)CO` [Corticosterone] was run?
**A.** Its value is <0.025%.

**Q.** With `C#C[C@]1(O)CC[C@H]2[C@@H]3CCC4=Cc5oncc5C[C@]4(C)[C@H]3CC[C@@]21C` [Danasol] as the compound, how does the “Percent Cross Reactivity” value read?
**A.** The value was <0.025%.

**Q.** With `C[C@]12CC[C@H](O)CC1=CC[C@@H]1[C@@H]2CC[C@]2(C)C(=O)CC[C@@H]12` [Dehydroepiandrosterone] as the compound, how does the “Percent Cross Reactivity” value read?
**A.** Its value is <0.05%.

**Q.** Which “Percent Cross Reactivity” value does the source give for `C[C@H]1CC(=O)C[C@@H]2CC[C@H]3[C@@H]4CC[C@H](O)[C@@]4(C)CC[C@@H]3[C@]21C` [Mesterolone] here?
**A.** Its value is <0.05%.

**Q.** How did the “Percent Cross Reactivity” value turn out when `CC(=O)[C@H]1CC[C@H]2[C@@H]3CCC4=CC(=O)CC[C@]4(C)[C@H]3CC[C@]12C` [Progesterone] was run?
**A.** Its value is <0.025%.

**Q.** `C[C@]12CC[C@H]3[C@@H](CCC4=CC(=O)CC[C@@]43C)[C@@H]1CC[C@@H]2O` [Testosterone] was tested. Which “Percent Cross Reactivity” value did it give?
**A.** The value was <0.05%.
